Experimental findings from US20250122223A1, “HETEROCYCLIC COMPOUNDS AS UBIQUITIN SPECIFIC PROTEASE 7 INHIBITORS” (ALMAC DISCOVERY LIMITED, priority 2022, published 2025) are described below.

The assay concerns the target USP7 (Homo sapiens (Human), UniProt Q93009). Briefly: USP7 fluorescence polarisation (FP) assay with ubiquitin-Lys-TAMRA substrate. It counts as biochemical. The settings on record: biochemical inhibition. The method, then: USP7 activity was monitored in a fluorescence polarisation (FP) homogeneous assay using the isopeptide ubiquitin-Lys-TAMRA substrate (U-558, Boston Biochem). Full-length USP7 was purchased from Boston Biochem (His6-USP7FL, E-519). Unless otherwise stated, all other reagents were purchased from Sigma-Aldrich. Enzymatic reactions were conducted in black flat-bottom low volume polystyrene 384-well plates (Grenier) and 15 μL total volume. USP7 (2.5 nM, 5 μL) was incubated in assay buffer (50 mM HEPES (pH 7.2), 150 mM NaCl, 5 mM DTT, 0.05% BSA (w/v), 0.05% CHAPS) in the presence or absence of inhibitor (5 μL). Inhibitors were stored as 10 mM DMSO stocks in an inert environment (low humidity, dark, low oxygen, room temperature) using a Storage Pod System and serial dilutions were prepared in buffer just prior to the assay (from 200 to 0.003 μM, 11 dp curve). Following incubation at room temperature for 30 min, the enzymatic reactions were initiated by dispensing the Ub substrate (50 nM, 5 μL). FP was measured every 5 min over a period of 1.5 h (within the linear range of the assay) using a Pherastar FSX (BMG Labtech) exciting at 530 nm and measuring the amount of parallel and perpendicular light at 575 nm. The FP signal was subsequently normalised to the control without compound present. Data were plotted and fitted, and the concentrations resulting in 50% inhibition (IC50) were calculated using the non-linear regression curve fitting model using GraphPad Prism.
Background: Polarisation of emitted light reports the rotation of a fluorescent probe.

Setting [1] is: read-out: USP7 IC50 activity (Table 3a, classes).
The mark [2] stands for this setting: unit not given in Table 3b (Table 1 and key of Table 3a use μM), read-out: USP7 IC50 activity (Table 3b).

The structures appear in SMILES notation. Read-outs that look alike come from different tables or passages of the source.

USP7, sequence (Q93009 whole entry): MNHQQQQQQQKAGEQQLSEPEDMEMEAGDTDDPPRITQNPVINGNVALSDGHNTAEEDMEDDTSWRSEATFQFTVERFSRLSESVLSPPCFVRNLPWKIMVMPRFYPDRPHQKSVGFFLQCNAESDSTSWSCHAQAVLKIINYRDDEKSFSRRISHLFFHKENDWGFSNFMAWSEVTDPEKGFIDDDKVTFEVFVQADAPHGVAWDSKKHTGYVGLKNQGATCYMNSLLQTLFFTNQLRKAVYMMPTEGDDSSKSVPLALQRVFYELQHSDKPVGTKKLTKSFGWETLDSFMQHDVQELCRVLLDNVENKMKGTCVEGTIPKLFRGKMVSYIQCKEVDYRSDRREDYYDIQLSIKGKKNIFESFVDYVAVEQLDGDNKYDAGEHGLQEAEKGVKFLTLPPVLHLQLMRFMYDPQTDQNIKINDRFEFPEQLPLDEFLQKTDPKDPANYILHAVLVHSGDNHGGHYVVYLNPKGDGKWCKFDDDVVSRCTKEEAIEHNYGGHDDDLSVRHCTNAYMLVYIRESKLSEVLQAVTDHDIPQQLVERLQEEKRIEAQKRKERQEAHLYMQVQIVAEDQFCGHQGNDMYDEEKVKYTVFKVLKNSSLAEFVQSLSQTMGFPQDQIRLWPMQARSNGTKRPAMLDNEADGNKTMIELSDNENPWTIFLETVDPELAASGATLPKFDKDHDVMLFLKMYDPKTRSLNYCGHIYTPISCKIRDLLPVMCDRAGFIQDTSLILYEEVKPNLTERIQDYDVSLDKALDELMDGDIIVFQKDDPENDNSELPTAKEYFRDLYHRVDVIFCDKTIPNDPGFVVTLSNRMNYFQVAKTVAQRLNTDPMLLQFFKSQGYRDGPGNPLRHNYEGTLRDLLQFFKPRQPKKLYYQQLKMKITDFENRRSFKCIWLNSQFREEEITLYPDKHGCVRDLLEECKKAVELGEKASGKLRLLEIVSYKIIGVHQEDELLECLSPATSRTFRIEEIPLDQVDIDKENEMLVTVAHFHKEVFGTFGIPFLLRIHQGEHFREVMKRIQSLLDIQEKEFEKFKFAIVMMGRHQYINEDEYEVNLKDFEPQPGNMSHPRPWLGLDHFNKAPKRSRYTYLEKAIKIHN

With `C[C@@]1(C(=O)N2CCC(O)(Cn3cnc4c(cc(Cl)n4-c4ccc([C@H]5COCCN5)cc4)c3=O)CC2)C[C@H]1C(F)(F)F` (single isomer, unassigned) [Example 110, 6-Chloro-3-((4-hydroxy-1-((1R,2R)-1-methyl-2-(trifluoromethyl)cyclopropane-1-carbonyl)piperidin-4-yl)methyl)-7-(4-((S)-morpholin-3-yl)phenyl)-3,7-dihydro-4H-pyrrolo[2,3-d]pyrimidin-4-one or 6-chloro-3-((4-hydroxy-1-((1R,2R)-1-methyl-2-(trifluoromethyl)cyclopropane-1-carbonyl)piperidin-4-yl)methyl)-7-(4-((R)-morpholin-3-yl)phenyl)-3,7-dihydro-4H-pyrrolo[2,3-d]pyrimidin-4-one], the IC50 is less than 0.1 µM under setting [1] and 0.079 µM under setting [2].
The matching figures for `CC1(C(=O)N2CCC(O)(Cn3cnc4c(cc(Cl)n4-c4ccc(C5(C)COCCN5)cc4)c3=O)CC2)CC1` (centres unmarked) [Example 3, 6-Chloro-3-((4-hydroxy-1-(1-methylcyclopropane-1-carbonyl)piperidin-4-yl)methyl)-7-(4-(3-methylmorpholin-3-yl)phenyl)-3,7-dihydro-4H-pyrrolo[2,3-d]pyrimidin-4-one]: 0.1 to 0.25 µM and 0.132 µM.
Take `C[C@H]1CN[C@H](c2ccc(-n3c(Cl)cc4c(=O)n(CC5(O)CCN(C(=O)c6ccc(Cl)cc6)CC5)cnc43)cc2)CO1` [Example 4, 6-Chloro-3-((1-(4-chlorobenzoyl)-4-hydroxypiperidin-4-yl)methyl)-7-(4-((3R,6S)-6-methylmorpholin-3-yl)phenyl)-3,7-dihydro-4H-pyrrolo[2,3-d]pyrimidin-4-one]: the IC50 by setting is: under setting [1], 0.1 to 0.25 µM; under setting [2], 0.222 µM.
The like results for `Cc1cc(-n2c(Cl)cc3c(=O)n(CC4(O)CCN(C(=O)c5ccc(Cl)cc5)CC4)cnc32)ccc1[C@@H]1CO[C@@H](C)CN1` [Example 5, 6-Chloro-3-((1-(4-chlorobenzoyl)-4-hydroxypiperidin-4-yl)methyl)-7-(3-methyl-4-((3R,6S)-6-methylmorpholin-3-yl)phenyl)-3,7-dihydro-4H-pyrrolo[2,3-d]pyrimidin-4-one] were, in that order, 0.1 to 0.25 µM and 0.225 µM.
The like results for `C[C@@H]1OCCN[C@H]1c1ccc(-n2c(Cl)cc3c(=O)n(CC4(O)CCN(C(=O)c5ccc(Cl)cc5)CC4)cnc32)cc1` [Example 6, 6-Chloro-3-((1-(4-chlorobenzoyl)-4-hydroxypiperidin-4-yl)methyl)-7-(4-((2S,3S)-2-methylmorpholin-3-yl)phenyl)-3,7-dihydro-4H-pyrrolo[2,3-d]pyrimidin-4-one] were, in that order, less than 0.1 µM and 0.05 µM.
The matching figures for `C[C@H]1CN[C@H](c2ccc(-n3c(Cl)cc4c(=O)n(CC5(O)CCN(C(=O)C[C@H](c6ccccc6)C(F)(F)F)CC5)cnc43)cc2)CO1` [Example 7, 6-Chloro-3-((4-hydroxy-1-((R)-4,4,4-trifluoro-3-phenylbutanoyl)piperidin-4-yl)methyl)-7-(4-((3R,6S)-6-methylmorpholin-3-yl)phenyl)-3,7-dihydro-4H-pyrrolo[2,3-d]pyrimidin-4-one]: less than 0.1 µM and 0.016 µM.
With `C[C@@H]1CN[C@@H](c2ccc(-n3c(Cl)cc4c(=O)n(CC5(O)CCN(C(=O)c6ccc(Cl)cc6)CC5)cnc43)cc2)CO1` [Example 11, 6-Chloro-3-((1-(4-chlorobenzoyl)-4-hydroxypiperidin-4-yl)methyl)-7-(4-((3S,6R)-6-methylmorpholin-3-yl)phenyl)-3,7-dihydro-4H-pyrrolo[2,3-d]pyrimidin-4-one], the IC50 runs as follows: under setting [1], less than 0.1 µM; under setting [2], 0.08 µM.
As to `Cc1cc(-n2c(Cl)cc3c(=O)n(CC4(O)CCN(C(=O)c5ccc(Cl)cc5)CC4)cnc32)ccc1[C@H]1CO[C@H](C)CN1` [Example 12, 6-Chloro-3-((1-(4-chlorobenzoyl)-4-hydroxypiperidin-4-yl)methyl)-7-(3-methyl-4-((3S,6R)-6-methylmorpholin-3-yl)phenyl)-3,7-dihydro-4H-pyrrolo[2,3-d]pyrimidin-4-one], the IC50 by setting is: under setting [1], 0.1 to 0.25 µM; under setting [2], 0.13 µM.
In the case of `C[C@@H]1CN[C@@H](c2ccc(-n3c(Cl)cc4c(=O)n(CC5(O)CCN(C(=O)C[C@H](c6ccccc6)C(F)(F)F)CC5)cnc43)cc2)CO1` [Example 13, 6-Chloro-3-((4-hydroxy-1-((R)-4,4,4-trifluoro-3-phenylbutanoyl)piperidin-4-yl)methyl)-7-(4-((3S,6R)-6-methylmorpholin-3-yl)phenyl)-3,7-dihydro-4H-pyrrolo[2,3-d]pyrimidin-4-one], the IC50 is less than 0.1 µM under setting [1] and 0.028 µM under setting [2].
The like results for `CC1(C)COCC(c2ccc(-n3c(Cl)cc4c(=O)n(CC5(O)CCN(C(=O)C6(C)CC6)CC5)cnc43)cc2)N1` (centres unmarked) [Example 15, 6-Chloro-7-(4-(5,5-dimethylmorpholin-3-yl)phenyl)-3-((4-hydroxy-1-(1-methylcyclopropane-1-carbonyl)piperidin-4-yl)methyl)-3,7-dihydro-4H-pyrrolo[2,3-d]pyrimidin-4-one] were, in that order, 0.1 to 0.25 µM and 0.169 µM.
`CC1(C)COCC(c2ccc(-n3c(Cl)cc4c(=O)n(CC5(O)CCN(C(=O)c6ccc(Cl)cc6)CC5)cnc43)cc2)N1` (centres unmarked) [Example 16, 6-Chloro-3-((1-(4-chlorobenzoyl)-4-hydroxypiperidin-4-yl)methyl)-7-(4-(5,5-dimethylmorpholin-3-yl)phenyl)-3,7-dihydro-4H-pyrrolo[2,3-d]pyrimidin-4-one]: the IC50 under setting [1] was in the range of 0.1 to 0.25 µM and the IC50 under setting [2] was determined as 0.249 µM.
In the case of `O=C(c1ccc(Cl)cc1)N1CCC(O)(Cn2cnc3c(cc(Cl)n3-c3ccc(C4COCC5(CC5)N4)cc3)c2=O)CC1` (centres unmarked) [Example 18, 7-(4-(7-Oxa-4-azaspiro[2.5]octan-5-yl)phenyl)-6-chloro-3-((1-(4-chlorobenzoyl)-4-hydroxypiperidin-4-yl)methyl)-3,7-dihydro-4H-pyrrolo[2,3-d]pyrimidin-4-one], the IC50 runs as follows: under setting [1], 0.25 to 2 µM; under setting [2], 0.378 µM.
The like results for `CC1(C(=O)N2CCC(O)(Cn3cnc4c(cc(Cl)n4-c4ccc(C5COCC6(CC6)N5)cc4)c3=O)CC2)CC1` (centres unmarked) [Example 19, 7-(4-(7-Oxa-4-azaspiro[2.5]octan-5-yl)phenyl)-6-chloro-3-((4-hydroxy-1-(1-methylcyclopropane-1-carbonyl)piperidin-4-yl)methyl)-3,7-dihydro-4H-pyrrolo[2,3-d]pyrimidin-4-one] were, in that order, 0.25 to 2 µM and 0.372 µM.
The like results for `C[C@H]1CN[C@H](c2ccc(-n3c(Cl)cc4c(=O)n(CC5(O)CCN(C(=O)c6ccccc6)CC5)cnc43)cc2)CO1` [Example 20, 3-((1-Benzoyl-4-hydroxypiperidin-4-yl)methyl)-6-chloro-7-(4-((3R,6S)-6-methylmorpholin-3-yl)phenyl)-3,7-dihydro-4H-pyrrolo[2,3-d]pyrimidin-4-one] were, in that order, 0.25 to 2 µM and 0.379 µM.
The like results for `C[C@H]1CN[C@H](c2ccc(-n3c(Cl)cc4c(=O)n(CC5(O)CCN(C(=O)c6ccc(F)cc6F)CC5)cnc43)cc2)CO1` [Example 22, 6-Chloro-3-((1-(2,4-difluorobenzoyl)-4-hydroxypiperidin-4-yl)methyl)-7-(4-((3R,6S)-6-methylmorpholin-3-yl)phenyl)-3,7-dihydro-4H-pyrrolo[2,3-d]pyrimidin-4-one] were, in that order, 0.1 to 0.25 µM and 0.222 µM.
`C[C@@H]1CN[C@@H](c2ccc(-n3c(Cl)cc4c(=O)n(CC5(O)CCN(C(=O)c6ccccc6)CC5)cnc43)cc2)CO1` [Example 24, 3-((1-Benzoyl-4-hydroxypiperidin-4-yl)methyl)-6-chloro-7-(4-((3S,6R)-6-methylmorpholin-3-yl)phenyl)-3,7-dihydro-4H-pyrrolo[2,3-d]pyrimidin-4-one]: the concentration for half-maximal inhibition (IC50) reads like this: under setting [1], 0.1 to 0.25 µM; under setting [2], 0.25 µM.
In the case of `C[C@@H]1CN[C@@H](c2ccc(-n3c(Cl)cc4c(=O)n(CC5(O)CCN(C(=O)c6ccc(F)cc6)CC5)cnc43)cc2)CO1` [Example 25, 6-Chloro-3-((1-(4-fluorobenzoyl)-4-hydroxypiperidin-4-yl)methyl)-7-(4-((3S,6R)-6-methylmorpholin-3-yl)phenyl)-3,7-dihydro-4H-pyrrolo[2,3-d]pyrimidin-4-one], the concentration for half-maximal inhibition (IC50) runs as follows: under setting [1], 0.1 to 0.25 µM; under setting [2], 0.147 µM.
The like results for `C[C@H]1CN[C@H](c2ccc(-n3c(Cl)cc4c(=O)n(CC5(O)CCN(C(=O)c6ccc(Cl)cc6F)CC5)cnc43)cc2)CO1` [Example 30, 6-Chloro-3-((1-(4-chloro-2-fluorobenzoyl)-4-hydroxypiperidin-4-yl)methyl)-7-(4-((3R,6S)-6-methylmorpholin-3-yl)phenyl)-3,7-dihydro-4H-pyrrolo[2,3-d]pyrimidin-4-one] were, in that order, 0.1 to 0.25 µM and 0.164 µM.
The like results for `C[C@H]1CN[C@H](c2ccc(-n3c(Cl)cc4c(=O)n(CC5(O)CCN(C(=O)c6ccccc6Cl)CC5)cnc43)cc2)CO1` [Example 31, 6-Chloro-3-((1-(2-chlorobenzoyl)-4-hydroxypiperidin-4-yl)methyl)-7-(4-((3R,6S)-6-methylmorpholin-3-yl)phenyl)-3,7-dihydro-4H-pyrrolo[2,3-d]pyrimidin-4-one] were, in that order, 0.1 to 0.25 µM and 0.144 µM.

One may read the IC50 as the midpoint of a concentration-inhibition curve.
